Measurements reported in article PMC4386068 (Journal of chemical information and modeling, 2015).

Target: InhA (Mtb enoyl-acyl-carrier-protein reductase) (Mycobacterium tuberculosis, UniProt P9WGR1)
Experiment: InhA enzyme inhibition assay, % inhibition at […] without pre-incubation
Assay type: biochemical
Conditions: read-out: % inhibition at 100 nM

Chain of InhA (Mtb enoyl-acyl-carrier-protein reductase) (P9WGR1 whole entry, looked up): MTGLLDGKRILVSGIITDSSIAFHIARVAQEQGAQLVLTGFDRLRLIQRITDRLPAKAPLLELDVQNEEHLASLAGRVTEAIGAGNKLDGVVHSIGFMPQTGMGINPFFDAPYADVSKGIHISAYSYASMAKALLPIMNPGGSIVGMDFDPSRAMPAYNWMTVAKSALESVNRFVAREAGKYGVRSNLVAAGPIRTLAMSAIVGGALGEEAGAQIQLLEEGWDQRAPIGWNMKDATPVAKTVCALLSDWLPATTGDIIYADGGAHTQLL

With CCCCCCc1ccc(Oc2ccccc2C)c(O)c1 [PT70] the inhibition at 0.1 µM was 75%.
